{"source": "patent US9486440B2", "about": "“Uses of indole-ketones or indolidones as neuro-protective drugs” (UNIVERSITY OF MACAU, priority 2011, dated 2016)", "key": {"[1]": {"system": "CGNs", "assay": "Low potassium-induced cell death in CGNs, MTT assay", "format": "cell-based", "conditions": "5 mM KCl BME medium, 24 hours; sunitinib 0.1-2 μM", "method": "Cell viability was measured by MTT assay at 24 hours after low potassium challenge. […] After 24 hours of low potassium challenge, CGNs were assayed with an FDA/PI double staining. […] After 24 hours of low potassium challenge, CGNs were assayed with Hoechst staining. The number of apoptotic nuclei with condensed chromatin were counted from representative Hoechst staining photomicrographs and represented as a percentage of the total number of nuclei counted. […] Intracellular NO level was measured using DAF-FM diacetate as a probe at 4 hour after low potassium challenge. Data, expressed as percentage of control (CGNs were cultured in high potassium medium), were the mean±SEM of three separate experiments; *p<0.05 and **p<0.01 versus low potassium group in (A) and (D) or versus control in (C); ^##p<0.01 versus low potassium group in (C) (Turkey's test).\nIt was previously reported that low potassium could induce typical apoptosis in cerebellar granule neurons (CGNs) (Fu et al., 2008). […] Cell viability was measured with an MTT assay 24 hours after the low potassium treatment."}, "[2]": {"system": "dopaminergic neurons in zebrafish larval", "assay": "MPTP zebrafish, TH-positive neuron count in paraffin sections", "format": "in vivo", "method": "Healthy zebrafish embryos were picked and dechorionated manually at 1 day post fertilization (dpf) then distributed into a 12-well plate with 20 fish embryos or a 6-well microplate with 30 fish embryos in each well. In pilot experiments, several doses of MPTP were added to embryo medium (final concentration from 50 to 800 μM) and 1 dpf fish embryo were treated for 48 hours, The optimal dose used (200 μM) induced a significant decrease in brain diencephalic dopaminergic neurons without any detectable systematic toxicity (data not shown). Thus subsequent studies were performed with 200 μM MPTP for whole-mount immunostaining and gene expression experiments.\nAfter drug treatment, fixation of zebrafish larval was performed as the procedure in whole-mount immunostaining. The fixed specimens were then mounted on 1% agarose blocks in a common linear plane to ensure that the microtome blade passes through each specimen simultaneously. The specimen-containing agarose was converted into a sectionable paraffin wax block and conducted processes as described by Sabaliauskas et al., 2006. […] The results were analyzed by counting the numbers of TH-positive cells at ×20 magnifications on a stereomicroscope (BX51, Olympus Corp. Japan). TH-positive cells in 3 matched sections of each zebrafish were counted and averaged. […]"}, "[3]": {"system": "nNOS knockdown PC12 cells", "assay": "MPP+ in ShRNA-mediated nNOS knockdown PC12 cells", "format": "cell-based, rat", "conditions": "20 μM SU5416 2 hours, then 1 mM MPP+ 24 hours", "method": "The assay was performed according to the specifications of the manufacturer (MTT kit I; Roche Applied Science). […] After the incubation, 100 μl of the solvating solution (0.01 N HCl in 10% SDS solution) was added to each well for 16-20 hours. The absorbance of the samples was measured at a wavelength of 570 nm with 655 nm as a reference wavelength. Unless otherwise indicated, the extent of MTT conversion in cells exposed to MPP^+ is expressed as a percentage of the control. Cytotoxicity was determined by measuring the release of lactate dehydrogenase (LDH). Briefly, cells were precipitated by centrifugation at 500 g for 5 min at room temperature, 50 μl of the supernatants was transferred into new wells, and LDH was determined using the in vitro toxicology assay kit (Roche). The absorbance of the samples was measured at a wavelength of 490 nm with 655 nm as a reference wavelength. ShRNA against rat nNOS was designed according to […] et al, 2009. […] NM_052799), was used to generate shRNA. […] Sense and antisense oligonucleotides were then annealed and cloned into pG418-GFP vector to express shRNA directed against nNOS under the control of the U6 promoter (GenePharma, Shanghai, China). A negative control shRNA (ShNC) with the same nucleotide composition but lacks significant sequence homology to the genome was also used in the experiments. […]"}, "[4]": {"conditions": "phase I, 145 mg/m^2; cited from earlier work"}, "[5]": {"assay": "SU4312 in brain homogenate of rats after i.p. administration (HPLC)", "format": "in vivo, rat", "conditions": "12 mg/kg i.p.", "method": "To investigate whether SU4312 could reach the brain, an HPLC method was used to detect SU4312 in the brain homogenate and plasma of rats (Scott et al., 2004; Spitsin et al., 2008). Briefly, after drug administration by i.p., the animals were transcardially perfused with PBS/heparin (1000 U/L). Then rats were sacrificed by decapitation and brain tissue was homogenized. SU4312 in the brain homogenate was extracted with 3 ml […]. After evaporating the solvent, the residue was reconstituted in 50 μl methanol. SU4312 in the brain tissue was identified by an Agilent 1200 Series HPLC coupled with UV detector at a wavelength of 254 nm. Prior to the preparation of brain homogenate, transcardial perfusion with PBS/heparin was conducted in order to remove blood from cerebravascular system so as to avoid the interference of the SU4312 that simply retained in the brain vasculature.\nPlasma concentration of SU4312 was also assayed by an HPLC method. Briefly, after drug administration by i.p., serial blood samples were collected through right internal jugular vein catheterization at various time points post-dosing. The plasma samples were treated with acetonitrile and methanol followed by centrifugation, and 20 μl supernatants were injected into the liquid chromatographic system. The mobile phase consisted of a mixture of methanol and water (80:20, v/v) at a flow rate of 1 ml/min."}, "[6]": {"system": "retinal photoreceptors or ganglion cells", "conditions": "3 mg of SU4312 every 5 days for 12 weeks; cited from earlier work"}}}
{"smiles": "Clc1ccc(Nc2nnc(Cc3ccncc3)c3ccccc23)cc1", "note": "[PTK787/ZK222584]", "values": [{"measurement": "low potassium-induced cell death (MTT)", "setting": "[1]", "value": "at 3 and 10 μM both failed to block neuronal loss in vitro"}]}
{"smiles": "Cc1cc(C)c(/C=C2\\C(=O)Nc3ccccc32)[nH]1", "note": "[SU5416, (3Z)-3-[(3,5-dimethyl-1H-pyrrol-2-yl)methylidene]-1,3-dihydro-2H-indol-2-one]", "values": [{"measurement": "MPTP-induced loss of dopaminergic neurons (TH-positive neuron count)", "setting": "[2]; 200 μM MPTP, 1 μM SU5416, 2 days", "value": "obviously prevented the loss of dopaminergic neurons"}, {"measurement": "number of dopaminergic neurons, drug alone", "setting": "[2]; without MPTP", "value": "did not notably alter the number of dopaminergic neurons"}, {"measurement": "MPP+-induced cell death in nNOS knockdown PC12 cells (MTT, LDH)", "setting": "[3]", "value": "no longer able to inhibit MPP^+-induced cell death"}, {"measurement": "tolerability in patients with advanced malignancies", "setting": "[4]", "value": "well tolerated"}]}
{"smiles": "CN(C)c1ccc(C=C2C(=O)Nc3ccccc32)cc1", "note": "[SU4312, 3-[4-(dimethylamino)benzylidenyl]indolin-2-one]", "values": [{"measurement": "detection in the brain, 15 min", "setting": "[5]; 15 min post-administration", "value": "could rapidly penetrate into the brain and be detected in the brain 15 min post-administration"}, {"measurement": "detection in the brain, 60 min", "setting": "[5]; 60 min after administration", "value": "almost no SU4312 was detected in the brain"}, {"measurement": "damage to retinal photoreceptors or ganglion cells", "setting": "[6]", "value": "did not damage retinal photoreceptors or ganglion cells"}]}
